This note sets out measurements from PubChem BioAssay AID2823 (Broad Institute, 2010).

The structures appear in SMILES notation. The source made the active and inactive calls. How the calls were made is not given here.

The assay concerns the target RanGTP-importin-beta complex (human Ran / KPNB1). In words: Ran–importin-beta interaction inhibitors, confirmation, biochemical, FRET, CFP/YFP, cell-free homogeneous (AID 2823). The settings on record: CFP-Ran/YFP-importin-beta FRET ratio.
The term IC50 denotes the point on the concentration scale where inhibition reaches its midpoint. With `Cc1ccc2nc(N3CCN(Cc4nnnn4Cc4ccccc4)CC3)c(C#N)cc2c1`, the IC50 was 23 µM.
Then `CC1Cc2cc(S(=O)(=O)NCc3ccccc3)ccc2N1C(=O)C1CC1` (stereo not given), with > 50 µM (inactive); and `Cc1cc(C)c2c(c1)/C(=c1/sc3n(c1=O)CN(c1ccccc1)CN=3)C(=O)N2`, with > 50 µM (inactive); and `COC(=O)c1cc2c(ccn2C)n1C`, with > 50 µM (inactive).
The result for `COc1ccc(C2c3c(ncn(Cc4ccco4)c3=N)Oc3ccc4ccccc4c32)cc1` (stereo not given) reads > 50 µM (inactive); that for `CC1CC(C)CN(c2cc(=O)n(Cc3ccc(F)cc3)c(=O)[nH]2)C1` (stereo not given), > 50 µM (inactive).
The result for `CCN1CCc2nc(NC(=O)CC(c3ccccc3)c3ccccc3)sc2C1` reads 23.2 µM; that for `O=c1c2cc(NC(=S)N3CCC(N4CCCCC4)CC3)ccc2nc2n1CCCCC2`, > 50 µM (inactive).
Regarding `OCC1(Cc2cccc(Cl)c2)CCCN(Cc2ccc3cc(F)ccc3n2)C1` (stereo not given), the IC50 is > 50 µM (inactive).
Consider `CC(=O)O[C@H]1CCC2C3CCC4=CC(=O)CCC4=C3C=C[C@@]21C` (stereo not given in full), for which the IC50 was > 50 µM (inactive).
Then `COc1ccc2cc(CCN3C(=O)c4ccccc4C3=O)c(=O)[nH]c2c1`, with > 50 µM (inactive).
Then `CC1=NN(C(=O)Cn2nc([N+](=O)[O-])cc2C)C(O)(C(F)(F)F)C1` (stereo not given), with > 50 µM (inactive); and `CCCOC(=S)NC(=O)c1sc2ccccc2c1Cl`, with > 50 µM (inactive).
Then `CC(C)NC(=O)C1CC=CCC1C(=O)O` (stereo not given), with > 50 µM (inactive).
`COCCN1C=C(C(=O)OC)C(c2ccc(Cl)cc2)C(C(=O)OC)=C1`: the IC50 is 9.78 µM.
On to `CC(=O)Cc1nsc(NC(=O)c2ccc(-c3cccc(C(F)(F)F)c3)o2)n1`, for which the IC50 is > 50 µM (inactive).
Then `Cc1cc(Cl)ccc1C(=O)C1CCCN(C(=O)c2n[nH]c3c2CCCC3)C1` (stereo not given), with > 50 µM (inactive); and `COc1ccc(/C=N/NC(=O)c2sc3nc(C)cc(C)c3c2N)cc1`, with 21 µM.
The result for `CCOC(=O)C1=C(C)NC2=C(C(=O)C(C(=O)OCC)C(c3ccccc3OC)C2)C1c1ccccn1` (stereo not given) reads 26.2 µM; that for `Cc1cccc(C2=NN(c3ccc(Br)cc3)[C@@H](C(=O)N3CCOC3=O)[C@@H]2c2ccc(F)cc2)c1`, 33.6 µM.
Regarding `CC(C)OCCCNC(=O)CCSc1ccc(Cl)cc1`, the IC50 is > 50 µM (inactive).
The result for `Cc1ccc(/C=C/C(=O)Nc2cccc3ncccc23)o1` reads > 50 µM (inactive).
Then `Cc1cccn2c(=O)c(/C=C(\C#N)C(=O)NC3CCS(=O)(=O)C3)c(Oc3ccc(F)cc3)nc12` (stereo not given), with 15.6 µM; and `CNc1cc(F)nc(F)n1`, with 18.4 µM; and `COc1cc(C(=O)NCCCNc2nc3cc(C)cc(C)c3cc2C#N)cc(OC)c1OC`, with 29.8 µM.
Consider `COc1cccc(C2=NOC(C(=O)Nc3cc(C)on3)C2)c1` (stereo not given), for which the IC50 was > 50 µM (inactive).
Regarding `CCCn1nc(NC(=O)CC(C)C)c2cc3cccc(C)c3nc21`, the 50% inhibitory concentration (IC50) is 5.82 µM.
On to `O=C(Nc1ccccc1-c1ccccc1)c1cccs1`, for which the IC50 is > 50 µM (inactive).
Then `Cc1ccc(N2NC(=O)/C(=C\c3cc4c(cc3[N+](=O)[O-])OCO4)C2=O)cc1C`, with > 50 µM (inactive).
Then `Cc1cc2c(c(=O)n1CC1CCCO1)C(c1ccco1)C(C#N)=C(N)O2` (stereo not given), with 20.9 µM; and `CC1(C)CC(=O)C/C(=N\NC(=O)Cc2ccccc2)C1`, with > 50 µM (inactive).
As to `CCOC(=O)c1c(NC(=O)Nc2ccc(F)cc2)sc2c1CCN(C)C2`, the IC50 was > 50 µM (inactive).
On to `CC(=O)c1ccc(-c2ccc(Cn3c(C)nc4cc(N)c(C)nc43)cc2)cc1`, for which the IC50 is > 50 µM (inactive).
The result for `Oc1nc(Nc2ccccc2)sc1/C=C1\C=Nc2ccccc21` reads > 50 µM (inactive); that for `CSc1nsc2nc(=O)c(/C=C3\C=Nc4ccccc43)c(N)n12`, 22.6 µM.
The result for `CC(O)CNc1nc2ccccc2n1CC(=O)NC12CC3CC(CC(C3)C1)C2` (stereo not given) reads > 50 µM (inactive); that for `CCCc1noc(-c2cccc([N+](=O)[O-])c2)n1`, > 50 µM (inactive).
As for `CCOC(=O)c1c(NC(=O)C2CCCCC2)sc2c1CCN(CC)C2`, the IC50 was > 50 µM (inactive).
The result for `CCc1c(C)c2cc(Cl)c(O)c(CN3CCCCC3)c2oc1=O` reads 22.9 µM; that for `CCC(CC)COC(=O)C1=C(C)NC(=O)NC1c1ccc(N(C)C)cc1` (stereo not given), > 50 µM (inactive).
Then `CCOC(=O)c1sc(NC(=O)CSc2nc(C)cc(C)n2)c(C#N)c1C`, with > 50 µM (inactive); and `CCN1CCc2c(sc(NC(=O)Cc3ccccc3)c2C(=O)OC)C1`, with > 50 µM (inactive).
Then `Cc1cccc(C)c1NC(=O)C1c2cccc[n+]2CC(=O)N1Cc1cccs1` (stereo not given), with > 50 µM (inactive); and `Cc1cnc(C(=O)Nc2ccc(S(=O)(=O)N(C(C)C)C(C)C)cc2)cn1`, with > 50 µM (inactive); and `C/C(=N\N)c1c(-c2ccccc2)c2cc(Br)ccc2[nH]c1=O`, with > 50 µM (inactive).
As to `COc1cc(NC(=O)Cn2ncc(Cl)c(Cl)c2=O)c(C)cc1[N+](=O)[O-]`, the IC50 is > 50 µM (inactive).
As for `CC(C)(C)C(=O)NC(=S)Nc1ccc(S(=O)(=O)Nc2nccs2)cc1`, the IC50 was > 50 µM (inactive).
On to `CCn1c(=O)cc(N2CCOCC2)[nH]c1=O`, for which the IC50 was > 50 µM (inactive).
The result for `CC(C)OC(=O)c1nnn(-c2nonc2N)c1CN1CCCCCC1` reads > 50 µM (inactive); that for `O=C(O)c1cccc(Nc2c3ccccc3nc3ccccc23)c1`, > 50 µM (inactive); that for `COc1ccc2c(c1)O/C(=C\c1ccco1)C2=O`, 18.3 µM.
Then `O=C(Nc1cccc(-c2nc3ccccc3s2)c1)c1cccs1`, with > 50 µM (inactive); and `COc1ccc(C(=O)Nc2ccc(S(=O)(=O)Nc3onc(C)c3C)cc2)cc1`, with > 50 µM (inactive).
`Cc1nnc(Sc2nc3c(c(=O)n(C)c(=O)n3C)n2Cc2ccccc2Cl)s1`: the IC50 is > 50 µM (inactive).
With `Cc1ccc(CNC(=O)c2cccnc2)cc1`, the IC50 is > 50 µM (inactive).
Turning to `CN1CCCN(C(=O)Cc2c(Cl)cccc2Cl)c2nc3ccccc3nc21`, the IC50 was 36.5 µM.
In the case of `CCCc1cc(=O)oc2c(CN3CCCC3)c(O)c(Cl)cc12`, the IC50 was 27.1 µM.
The result for `COc1ccc(OC)c(Nc2c3ccccc3nc3ccccc23)c1` reads > 50 µM (inactive).
As to `CCOC(=O)c1ccc2[nH]cc(C(C)=O)c(=O)c2c1`, the IC50 was 12.6 µM.
As for `CCc1ccc(CNc2ccc3c(c2)ncn3C(C)(C)C)cc1`, the IC50 was > 50 µM (inactive).
Take `CC(=O)Nc1ccc(S(=O)(=O)NCc2nc(-c3cccc(C)c3)no2)cc1`: the IC50 is > 50 µM (inactive).
The result for `O=C1NC(=O)N(Cc2ccccc2)C(=O)/C1=C\N1CCCc2ccccc21` reads > 50 µM (inactive).
Then `CCc1nnc(NC(=O)c2c(C)nn(-c3ccccc3)c2Cl)s1`, with > 50 µM (inactive); and `O=C(C1CCCCC1)N1CC(=O)N2CCc3ccccc3C2C1` (stereo not given), with > 50 µM (inactive).
The result for `COc1cc(C(=O)NCCNc2nc3cc(C)ccc3cc2C#N)cc(OC)c1OC` reads 34.6 µM.
Take `CCOc1ccc(N=Cc2c(O)n(-c3cccc(C)n3)c(=O)c3ccccc23)cc1`: the IC50 is > 26 µM (inactive).
Then `Cc1ccc(C2NC(=O)c3c(sc(C)c3C)N2)c(O)c1` (stereo not given), with > 50 µM (inactive); and `COc1ccc(NC(=O)CN2C(=O)CC(C)S(=O)(=O)c3ccccc32)cc1` (stereo not given), with > 50 µM (inactive); and `COc1cccc(-c2coc3c(C)c4oc(=O)c(CC(=O)O)c(C)c4cc23)c1`, with > 50 µM (inactive).
Then `O=C(O)C1C2CCC(C2)C1C(=O)NCCc1ccc(F)cc1` (stereo not given), with > 50 µM (inactive).
Then `Cc1c(/C=N\NC(=O)C2COc3ccccc3O2)c2ccccc2n1C` (stereo not given), with > 50 µM (inactive); and `COc1ccc2cc(C#N)c(N3CCN(C(=O)c4ccccc4C)CC3)nc2c1`, with > 50 µM (inactive).
As to `Cc1cc(C(=O)N2CCc3c([nH]c4ccccc34)C2c2c(F)cccc2Cl)no1` (stereo not given), the IC50 was > 50 µM (inactive).
With `NC(=O)N/N=C/c1ccccc1OC(=O)c1cc2ccccc2oc1=O`, the IC50 was > 50 µM (inactive).
The result for `Cc1cc(/C=C2\C(=O)NC(=O)N(c3ccc(F)cc3)C2=O)c(C)n1-c1ccc(C(=O)O)cc1` reads > 50 µM (inactive); that for `O=C1CCCN2N=C(SCC(=O)N3N=C(c4ccc(Br)cc4)CC3c3ccc(F)cc3)SC2=N1` (stereo not given), > 50 µM (inactive); that for `OCCNc1nc(-c2ccccc2)nc2ccccc12`, > 50 µM (inactive).
The result for `CC(C)Cc1nn2c(N)c(/C=C3\C=Nc4ccccc43)c(=O)nc2s1` reads > 50 µM (inactive); that for `CCN(CC)S(=O)(=O)c1ccc(/C=C/C(=O)Nc2ccc(F)cc2F)cc1`, > 50 µM (inactive); that for `COC(=O)c1sccc1NC(=O)c1csc(C)c1`, > 50 µM (inactive).
On to `CCN(C(=O)c1ccc(Cl)cc1[N+](=O)[O-])c1ccccc1C`, for which the IC50 was > 50 µM (inactive).
The result for `N#Cc1cc(NCC2CCCO2)c([N+](=O)[O-])cc1C#N` (stereo not given) reads > 50 µM (inactive); that for `O=C(Nc1nonc1NC(=O)c1cccs1)c1cccs1`, > 50 µM (inactive).
The result for `CCc1ccc(C(=O)CSc2ncn[nH]2)cc1` reads > 50 µM (inactive); that for `COc1ccccc1C#Cc1ccc2c(=O)c3ccccc3n(C)c2c1`, 0.698 µM; that for `Cc1cccc(/C=N/c2sc3c(c2C#N)CCN(Cc2ccccc2)C3)c1O`, > 50 µM (inactive).
Consider `Oc1ccc(/C=N/Nc2cc(N3CCOCC3)nc(N3CCOCC3)n2)cc1`, for which the IC50 was > 50 µM (inactive).
Then `CC(OC(=O)CNC(=O)c1cccc(F)c1)C(=O)NC1CCCCC1C` (stereo not given), with > 50 µM (inactive); and `COc1ccc(Cn2c(=N)c(C(=O)NC3CCCCC3)cc3c(=O)n4ccccc4nc32)cc1`, with 47.7 µM.
Then `O=c1[nH]c2c(s1)C(c1ccco1)C1C3CCC(C3)C1S2` (stereo not given), with > 50 µM (inactive).
